The test system of one assay is spring barley. Briefly: Test D preemergence. It is filed as in vivo, Hordeum vulgare. The settings on record: Hordeum vulgare, pre-emergence, scale 0-100, read-out: Plant response rating, Barley, Spring. In short, it runs like this: (§1)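 Values are 0–100 visual control ratings (0 none, 100 complete) given 7–21 days after application. Soil for preemergence was silt loam; postemergence plants stood 2–18 cm tall.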

The next assay concerns winter barley. In words: Test D preemergence. The assay is classed as in vivo, Hordeum vulgare. The settings on record: Hordeum vulgare, pre-emergence, scale 0-100, read-out: Plant response rating, Barley, Winter. In short, it runs like this:
as §1

The subject of the next assay is windgrass. In words: Test D preemergence. The settings on record: Apera spica-venti, pre-emergence. The assay is classed as in vivo, Apera spica-venti. The source says:
(§2) Seeds of plant species selected from bluegrass (annual bluegrass, Poa annua), blackgrass (Alopecurus myosuroides), canarygrass (littleseed canarygrass, Phalaris minor), chickweed (common chickweed, Stellaria media), galium (catchweed bedstraw, Galium aparine), bromegrass, downy (downy bromegrass, Bromus tectorum), field poppy (Papaver rhoeas), field violet (Viola arvensis), green foxtail (Setaria viridis), deadnettle (henbit deadnettle, Lamium amplexicaule), Italian ryegrass (Lolium multiflorum), kochia (Kochia scoparia), lambsquarters (Chenopodium album), oilseed rape (Brassica napus), pigweed (Amaranthus retroflexus), chamomile (scentless chamomile, Matricaria inodora), Russian thistle (Salsola kali), speedwell (bird's-eye speedwell, Veronica persica), spring barley (Hordeum vulgare), spring wheat (Triticum aestivum), wild buckwheat (Polygonum convolvulus), wild mustard (Sinapis arvensis), wild oat (Avena fatua), wild radish (Raphanus raphanistrum), windgrass (Apera spica-venti), winter barley (Hordeum vulgare), and winter wheat (Triticum aestivum) were planted into a silt loam soil and treated preemergence with test chemicals formulated in a non-phytotoxic solvent mixture which included a surfactant.
(§3) At the same time, these species were planted in pots containing Redi-Earth® planting medium (Scotts Company, 14111 Scottslawn Road, Marysville, Ohio 43041) comprising spaghnum peat moss, vermiculite, wetting agent and starter nutrients and treated with postemergence applications of the test chemicals formulated in the same manner. Plants ranged in height from 2 to 18 cm (1- to 4-leaf stage). Treated plants and controls were maintained in a controlled growth environment for 7 to 21 days after which time all species were compared to controls and visually evaluated. Plant response ratings, summarized in Table D, are based on a scale of 0 to 100 where 0 is no effect and 100 is complete control. A dash (-) response means no test result.

The next assay has as its system oilseed rape. In words: Test D postemergence. The settings on record: Brassica napus, post-emergence, scale 0 to 100 (0 no effect, 100 complete control), read-out: Plant response rating, Oilseed Rape. It is filed as in vivo, Brassica napus.
Source text: as §2, §3

The subject of a further assay is kochia. Briefly: Test E postemergence. It is filed as in vivo, Kochia scoparia. The source says: Seeds of plant species selected from corn (Zea mays), soybean (Glycine max), velvetleaf (Abutilon theophrasti), lambsquarters (Chenopodium album), wild poinsettia (Euphorbia heterophylla), palmer pigweed (Amaranthus palmeri), waterhemp (common waterhemp, Amaranthus rudis), surinam grass (Brachiaria decumbens), large (Lg) crabgrass (Digitaria sanguinalis), Brazilian crabgrass (Digitaria horizontalis), fall panicum (Panicum dichotomiflorum), giant foxtail (Setaria faberii), green foxtail (Setaria viridis), goosegrass (Eleusine indica), johnsongrass (Sorghum halepense), ragweed (common ragweed, Ambrosia elatior), barnyardgrass (Echinochloa crus-galli), sandbur (southern sandbur, Cenchrus echinatus), arrowleaf sida (Sida rhombifolia), Italian ryegrass (Lolium multiflorum), dayflower (Virginia (VA) dayflower, Commelina virginica), field bindweed (Convolvulus arvensis), morningglory (Ipomoea coccinea), nightshade (eastern black nightshade, Solanum ptycanthum), kochia (Kochia scoparia), yellow nutsedge (Cyperus esculentus), cocklebur (common cocklebur, Xanthium strumarium), smartweed (ladysthumb smartweed, and hairy beggarticks (Bidens pilosa), were planted into a silt loam soil and treated preemergence with test chemicals formulated in a non-phytotoxic solvent mixture which included a surfactant.
At the same time, plants from these crop and weed species and also horseweed (Canada horseweed, Conyza canadensis), waterhemp_RES1, (ALS & Triazine resistant common waterhemp, Amaranthus rudis), and waterhemp_RES2, (ALS & HPPD resistant common waterhemp, Amaranthus rudis) were planted in pots containing Redi-Earth® planting medium (Scotts Company, 14111 Scottslawn Road, Marysville, Ohio 43041) comprising spaghnum peat moss, vermiculite, wetting agent and starter nutrients were treated with postemergence applications of test chemicals formulated in the same manner. Plants ranged in height from 2 to 18 cm for postemergence treatments (1- to 4-leaf stage). Treated plants and controls were maintained in a greenhouse for 14 to 21 days, after which time all species were compared to controls and visually evaluated. Plant response ratings, summarized in Table E, are based on a scale of 0 to 100 where 0 is no effect and 100 is complete control. A dash (-) response means no test result.

SMILES strings stand for the structures.

Take `N#Cc1cccc(Oc2ncc(Cl)cn2)c1-n1cc(Br)cn1` [Compound 52, 2-(4-bromo-1H-pyrazol-1-yl)-3-[(5-chloro-2-pyrimidinyl)oxy]benzonitrile]: the values for the plant injury at 31 g/ha in the assay with spring barley (31 g ai/ha), in the assay on winter barley (31 g ai/ha) and in the assay with oilseed rape (31 g ai/ha) were 5%, 0% and 55%, respectively. The plant injury at 62 g/ha was 10% in the assay on spring barley (62 g ai/ha), 0% with winter barley (62 g ai/ha) and 65% with oilseed rape (62 g ai/ha). Also, the plant injury at 125 g/ha in the assay on spring barley (125 g ai/ha) was determined as 10%; in the assay on winter barley (125 g ai/ha) it was 5%; in the assay with oilseed rape (125 g ai/ha) it was 85%. Further, the plant injury at 250 g/ha with spring barley (250 g ai/ha) turned out to be 50%; with winter barley (250 g ai/ha), 35%; with oilseed rape (250 g ai/ha), 95%. Besides, the pest or weed control at 31 g/ha in the assay on windgrass (31 g ai/ha, scale 0 (no effect) to 100 (complete control), read-out: Plant response rating, Windgrass) stood at 50%. For the same compound, the pest or weed control at 62 g/ha in the assay on windgrass (62 g ai/ha, scale 0-100, read-out: Plant response rating, Windgrass) is 70%. The pest or weed control at 125 g/ha with windgrass (125 g ai/ha, scale 0-100, read-out: Plant response rating, Windgrass) worked out at 100%. For the same compound, in the assay on windgrass (250 g ai/ha, scale 0-100, read-out: Plant response rating, Windgrass), the pest or weed control at 250 g/ha was 100%. Further, the “Plant response rating, Kochia” value in the assay on kochia (Postemergence, 31 g ai/ha, scale 0 to 100) turned out to be 50; with kochia (Postemergence, 62 g ai/ha, scale 0 to 100), 55; in the assay with kochia (Postemergence, 125 g ai/ha, scale 0 to 100) it was 80; with kochia (postemergence, 16 g ai/ha, scale 0 to 100, 0 no effect, 100 complete control) it was 40.

The values above are taken from patent publication US9695155B2, “Herbicidal substituted pyrimidinyloxy benzene compounds” (E. I. DU PONT DE NEMOURS AND COMPANY, priority 2013, dated 2017).
